# Measurements as given in PubChem BioAssay (NCI).
#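 How tested: cells in 96-well plates exposed to compound for 48 hours at five concentrations. GI50 marks 50% less growth. TGI marks complete inhibition of growth.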
# What was measured:
# Experiment in all cases: inhibition of tumour cell growth, NCI panel, 48 h
# MCF7 breast = system: MCF7 breast
# HL-60(TB) leukemia = system: HL-60(TB) leukemia
# NCI-H522 lung = system: NCI-H522 lung
# K-562 leukemia = system: K-562 leukemia
# HOP-62 NSCLC = system: HOP-62 NSCLC
# RXF 393 renal = system: RXF 393 renal
# HT29 colon = system: HT29 colon
# SR leukemia = system: SR leukemia
# SF-539 CNS = system: SF-539 CNS
# CCRF-CEM leukemia = system: CCRF-CEM leukemia
# SK-OV-3 ovarian = system: SK-OV-3 ovarian
# MALME-3M melanoma = system: MALME-3M melanoma
# SNB-19 CNS = system: SNB-19 CNS
# DU-145 prostate = system: DU-145 prostate
# U251 CNS = system: U251 CNS
# SK-MEL-2 melanoma = system: SK-MEL-2 melanoma
# SF-295 CNS = system: SF-295 CNS
# HCT-15 colon = system: HCT-15 colon
# SW-620 colon = system: SW-620 colon
# BT-549 breast = system: BT-549 breast
# SN12C renal = system: SN12C renal
# NCI/ADR-RES ovarian = system: NCI/ADR-RES ovarian
# NCI-H226 lung = system: NCI-H226 lung
# SK-MEL-5 melanoma = system: SK-MEL-5 melanoma
# PC-3 prostate = system: PC-3 prostate
# UO-31 renal = system: UO-31 renal
# OVCAR-5 ovarian = system: OVCAR-5 ovarian
# LOX IMVI melanoma = system: LOX IMVI melanoma
# UACC-62 melanoma = system: UACC-62 melanoma
# T-47D breast = system: T-47D breast
# SF-268 CNS = system: SF-268 CNS
# UACC-257 melanoma = system: UACC-257 melanoma
# A549 NSCLC = system: A549 NSCLC
# HOP-92 NSCLC = system: HOP-92 NSCLC
# SNB-75 CNS = system: SNB-75 CNS
# NCI-H460 lung = system: NCI-H460 lung
# KM12 colon = system: KM12 colon
# TK-10 renal = system: TK-10 renal
# MDA-MB-231 breast = system: MDA-MB-231 breast
# M14 melanoma = system: M14 melanoma
# IGROV1 ovarian = system: IGROV1 ovarian
# MDA-MB-435 = system: MDA-MB-435
# OVCAR-3 ovarian = system: OVCAR-3 ovarian
# CAKI-1 renal = system: CAKI-1 renal
# OVCAR-8 ovarian = system: OVCAR-8 ovarian
# NCI-H23 lung = system: NCI-H23 lung
# HCC-2998 colon = system: HCC-2998 colon
# ACHN renal = system: ACHN renal
# EKVX NSCLC = system: EKVX NSCLC
# RPMI-8226 leukemia = system: RPMI-8226 leukemia
# MOLT-4 leukemia = system: MOLT-4 leukemia
# SK-MEL-28 melanoma = system: SK-MEL-28 melanoma
# OVCAR-4 ovarian = system: OVCAR-4 ovarian
# 786-0 renal = system: 786-0 renal
# COLO 205 colon = system: COLO 205 colon
# HCT-116 colon = system: HCT-116 colon
# A498 renal = system: A498 renal
smiles,measurement,setting,value
Cc1c2c(nn1-c1ccc(S/N=C3\SCC(=O)CN3Cc3ccccc3)cc1)-c1ccccc1CC2,GI50,MCF7 breast,3.74 µM
same,TGI,MCF7 breast,35 µM
same,GI50,HL-60(TB) leukemia,34.1 µM
same,TGI,HL-60(TB) leukemia,> 100 µM
same,GI50,NCI-H522 lung,22.6 µM
same,TGI,NCI-H522 lung,59.7 µM
same,GI50,K-562 leukemia,30.1 µM
same,TGI,K-562 leukemia,> 100 µM
same,GI50,HOP-62 NSCLC,> 100 µM
same,TGI,HOP-62 NSCLC,> 100 µM
same,GI50,RXF 393 renal,22.6 µM
same,TGI,RXF 393 renal,54.7 µM
same,GI50,HT29 colon,51.5 µM
same,TGI,HT29 colon,> 100 µM
same,GI50,SR leukemia,8.35 µM
same,TGI,SR leukemia,> 100 µM
same,GI50,SF-539 CNS,29.5 µM
same,TGI,SF-539 CNS,58.2 µM
same,GI50,CCRF-CEM leukemia,6.45 µM
same,TGI,CCRF-CEM leukemia,> 100 µM
same,GI50,SK-OV-3 ovarian,88.9 µM
same,TGI,SK-OV-3 ovarian,> 100 µM
same,GI50,MALME-3M melanoma,41.4 µM
same,TGI,MALME-3M melanoma,82.7 µM
same,GI50,SNB-19 CNS,> 100 µM
same,TGI,SNB-19 CNS,> 100 µM
same,GI50,DU-145 prostate,50.5 µM
same,TGI,DU-145 prostate,> 100 µM
same,GI50,U251 CNS,21.8 µM
same,TGI,U251 CNS,78.9 µM
same,GI50,SK-MEL-2 melanoma,58.2 µM
same,TGI,SK-MEL-2 melanoma,> 100 µM
same,GI50,SF-295 CNS,25.7 µM
same,TGI,SF-295 CNS,91.5 µM
same,GI50,HCT-15 colon,31.7 µM
same,TGI,HCT-15 colon,> 100 µM
same,GI50,SW-620 colon,25.5 µM
same,TGI,SW-620 colon,> 100 µM
same,GI50,BT-549 breast,22.5 µM
same,TGI,BT-549 breast,54.7 µM
same,GI50,SN12C renal,26.7 µM
same,TGI,SN12C renal,99.7 µM
same,GI50,NCI/ADR-RES ovarian,39.2 µM
same,TGI,NCI/ADR-RES ovarian,> 100 µM
same,GI50,NCI-H226 lung,38.5 µM
same,TGI,NCI-H226 lung,> 100 µM
same,GI50,SK-MEL-5 melanoma,9.08 µM
same,TGI,SK-MEL-5 melanoma,29.5 µM
same,GI50,PC-3 prostate,27.7 µM
same,TGI,PC-3 prostate,> 100 µM
same,GI50,UO-31 renal,64.3 µM
same,TGI,UO-31 renal,> 100 µM
same,GI50,OVCAR-5 ovarian,> 100 µM
same,TGI,OVCAR-5 ovarian,> 100 µM
same,GI50,LOX IMVI melanoma,10.7 µM
same,TGI,LOX IMVI melanoma,25 µM
same,GI50,UACC-62 melanoma,28.3 µM
same,TGI,UACC-62 melanoma,> 100 µM
same,GI50,T-47D breast,82.9 µM
same,TGI,T-47D breast,> 100 µM
same,GI50,SF-268 CNS,17.6 µM
same,TGI,SF-268 CNS,46.1 µM
same,GI50,UACC-257 melanoma,38.2 µM
same,TGI,UACC-257 melanoma,> 100 µM
same,GI50,A549 NSCLC,46.7 µM
same,TGI,A549 NSCLC,> 100 µM
same,GI50,HOP-92 NSCLC,> 100 µM
same,TGI,HOP-92 NSCLC,> 100 µM
same,GI50,SNB-75 CNS,75.9 µM
same,TGI,SNB-75 CNS,> 100 µM
same,GI50,NCI-H460 lung,29.4 µM
same,TGI,NCI-H460 lung,> 100 µM
same,GI50,KM12 colon,60.1 µM
same,TGI,KM12 colon,> 100 µM
same,GI50,TK-10 renal,50.4 µM
same,TGI,TK-10 renal,> 100 µM
same,GI50,MDA-MB-231 breast,24.8 µM
same,TGI,MDA-MB-231 breast,87.3 µM
same,GI50,M14 melanoma,46.5 µM
same,TGI,M14 melanoma,> 100 µM
same,GI50,IGROV1 ovarian,24 µM
same,TGI,IGROV1 ovarian,> 100 µM
same,GI50,MDA-MB-435,20.6 µM
same,TGI,MDA-MB-435,48.5 µM
same,GI50,OVCAR-3 ovarian,25.2 µM
same,TGI,OVCAR-3 ovarian,68.3 µM
same,GI50,CAKI-1 renal,26.6 µM
same,TGI,CAKI-1 renal,87.6 µM
same,GI50,OVCAR-8 ovarian,41 µM
same,TGI,OVCAR-8 ovarian,> 100 µM
same,GI50,NCI-H23 lung,49.8 µM
same,TGI,NCI-H23 lung,> 100 µM
same,GI50,HCC-2998 colon,72.9 µM
same,TGI,HCC-2998 colon,> 100 µM
same,GI50,ACHN renal,32.9 µM
same,TGI,ACHN renal,> 100 µM
same,GI50,EKVX NSCLC,46.6 µM
same,TGI,EKVX NSCLC,> 100 µM
same,GI50,RPMI-8226 leukemia,31.1 µM
same,TGI,RPMI-8226 leukemia,> 100 µM
same,GI50,MOLT-4 leukemia,9.62 µM
same,TGI,MOLT-4 leukemia,> 100 µM
same,GI50,SK-MEL-28 melanoma,24.6 µM
same,TGI,SK-MEL-28 melanoma,62.4 µM
same,GI50,OVCAR-4 ovarian,96.7 µM
same,TGI,OVCAR-4 ovarian,> 100 µM
same,GI50,786-0 renal,89.2 µM
same,TGI,786-0 renal,> 100 µM
same,GI50,COLO 205 colon,63.4 µM
same,TGI,COLO 205 colon,> 100 µM
N#Cc1c(-c2ccc(Cl)cc2)cc(-c2ccc(Nc3ccnc4cc(Cl)ccc34)cc2)nc1N,TGI,HL-60(TB) leukemia,> 100 µM
same,TGI,NCI-H522 lung,> 100 µM
same,TGI,K-562 leukemia,> 100 µM
same,TGI,HOP-62 NSCLC,> 100 µM
same,TGI,RXF 393 renal,> 100 µM
same,TGI,SR leukemia,> 100 µM
same,TGI,SF-539 CNS,> 100 µM
same,TGI,SK-OV-3 ovarian,> 100 µM
same,TGI,MALME-3M melanoma,> 100 µM
same,TGI,SNB-19 CNS,> 100 µM
same,TGI,DU-145 prostate,> 100 µM
same,TGI,U251 CNS,> 100 µM
same,TGI,SK-MEL-2 melanoma,> 100 µM
same,TGI,SF-295 CNS,> 100 µM
same,TGI,HCT-15 colon,> 100 µM
same,TGI,SW-620 colon,> 100 µM
same,TGI,BT-549 breast,> 100 µM
same,TGI,NCI/ADR-RES ovarian,> 100 µM
same,TGI,NCI-H226 lung,> 100 µM
same,TGI,PC-3 prostate,> 100 µM
same,TGI,UO-31 renal,> 100 µM
same,TGI,OVCAR-5 ovarian,> 100 µM
same,TGI,UACC-62 melanoma,> 100 µM
same,TGI,T-47D breast,> 100 µM
same,TGI,SF-268 CNS,> 100 µM
same,TGI,A549 NSCLC,> 100 µM
same,TGI,HOP-92 NSCLC,> 100 µM
same,TGI,SNB-75 CNS,> 100 µM
same,TGI,NCI-H460 lung,> 100 µM
same,TGI,KM12 colon,> 100 µM
same,TGI,TK-10 renal,> 100 µM
same,TGI,MDA-MB-231 breast,> 100 µM
same,TGI,M14 melanoma,> 100 µM
same,TGI,IGROV1 ovarian,> 100 µM
same,TGI,MDA-MB-435,> 100 µM
same,TGI,OVCAR-3 ovarian,> 100 µM
same,TGI,CAKI-1 renal,> 100 µM
same,TGI,OVCAR-8 ovarian,> 100 µM
same,TGI,HCT-116 colon,> 100 µM
same,TGI,NCI-H23 lung,> 100 µM
same,TGI,HCC-2998 colon,> 100 µM
same,TGI,ACHN renal,> 100 µM
same,TGI,A498 renal,> 100 µM
same,TGI,EKVX NSCLC,> 100 µM
same,TGI,RPMI-8226 leukemia,> 100 µM
same,TGI,SK-MEL-28 melanoma,> 100 µM
same,TGI,OVCAR-4 ovarian,> 100 µM
same,TGI,786-0 renal,> 100 µM
same,TGI,COLO 205 colon,> 100 µM
